From patent publication US11173137B2, “Compositions and methods to modulate chloride ion channel activity” (The Board of Trustees of the Leland Stanford Junior …, priority 2018, dated 2021)

How the values were obtained:
D4 = D4 (Homo sapiens (Human), UniProt P21917); test: PDSP primary binding assay; details: primary binding assay at 10 μM
Description: (§1) Two exemplary compounds, FA44 and FA26, were screened against a panel of CNS receptors, transporters, and ion channels to examine specificity for CLC-2 in the brain. A comprehensive primary binding assay screen was performed through the NIH Psychoactive Drug Screening Program (PDSP) at UNC-Chapel Hill. Secondary or functional assays were performed for compounds showing >50% activity in the primary assay.

Alpha1B = Alpha1B (Homo sapiens (Human), UniProt P35368); test: PDSP primary binding assay; details: primary binding assay at 10 μM
Description: as §1

H3 = H3 (Homo sapiens (Human), UniProt Q9Y5N1); test: PDSP primary binding assay; details: primary binding assay at 10 μM
Description: as §1

Sigma 1 = Sigma 1 (Homo sapiens (Human), UniProt Q99720); test: PDSP primary binding assay; details: primary binding assay at 10 μM
Description: as §1

5-HT1B = 5-HT1B (Homo sapiens (Human), UniProt P28222); test: PDSP primary binding assay; details: primary binding assay at 10 μM
Description: as §1

5-HT3 = 5-HT3 (Homo sapiens (Human), UniProt P46098); test: PDSP primary binding assay; details: primary binding assay at 10 μM
Description: as §1

Alpha2B = Alpha2B (Homo sapiens (Human), UniProt P18089); test: PDSP primary binding assay; details: primary binding assay at 10 μM
Description: as §1

NMDA = test: PDSP primary binding assay; details: primary binding assay at 10 μM
Description: as §1

Alpha1D = Alpha1D (Homo sapiens (Human), UniProt P25100); test: PDSP primary binding assay; details: primary binding assay at 10 μM
Description: as §1

5-HT2A = 5-HT2A (Homo sapiens (Human), UniProt P28223); test: PDSP primary binding assay; details: primary binding assay at 10 μM
Description: as §1

H4 = H4 (Homo sapiens (Human), UniProt Q9H3N8); test: PDSP primary binding assay; details: primary binding assay at 10 μM
Description: as §1

KOR = KOR (Homo sapiens (Human), UniProt P41145); test: PDSP primary binding assay; details: primary binding assay at 10 μM
Description: as §1

Alpha1A = Alpha1A (Homo sapiens (Human), UniProt P35348); test: PDSP primary binding assay; details: primary binding assay at 10 μM
Description: as §1

5-HT1E = 5-HT1E (Homo sapiens (Human), UniProt P28566); test: PDSP primary binding assay; details: primary binding assay at 10 μM
Description: as §1

Beta3 = Beta3 (Homo sapiens (Human), UniProt P13945); test: PDSP primary binding assay; details: primary binding assay at 10 μM
Description: as §1

Beta2 = Beta2 (Homo sapiens (Human), UniProt P07550); test: PDSP primary binding assay; details: primary binding assay at 10 μM
Description: as §1

Oxytocin = Oxytocin (Homo sapiens (Human), UniProt P30559); test: PDSP primary binding assay; details: primary binding assay at 10 μM
Description: as §1

BZP rat brain site = test: PDSP primary binding assay; details: primary binding assay at 10 μM
Description: as §1

AMPA = test: PDSP primary binding assay; details: primary binding assay at 10 μM
Description: as §1

5-HT7 = 5-HT7 (Homo sapiens (Human), UniProt P34969); test: PDSP primary binding assay; details: primary binding assay at 10 μM
Description: as §1

mGluR2 = mGluR2 (Homo sapiens (Human), UniProt Q14416); test: PDSP functional assay; type: biochemical; details: only a functional assay was performed
Description: as §1

mGluR4 = mGluR4 (Homo sapiens (Human), UniProt Q14833); test: PDSP functional assay; type: biochemical; details: only a functional assay was performed
Description: as §1

mGluR8 = mGluR8 (Homo sapiens (Human), UniProt O00222); test: PDSP functional assay; type: biochemical; details: only a functional assay was performed
Description: as §1

mGluR6 = mGluR6 (Homo sapiens (Human), UniProt O15303); test: PDSP functional assay; type: biochemical; details: only a functional assay was performed
Description: as §1

mGluR1 = mGluR1 (Homo sapiens (Human), UniProt Q13255); test: PDSP functional assay; type: biochemical; details: only a functional assay was performed
Description: as §1

CLC-2 = CLC-2 (Homo sapiens (Human), UniProt P51788); details: preliminary data, Xenopus oocytes
CLC-1 = CLC-1 (Homo sapiens (Human), UniProt P35523); test: two-electrode voltage clamp electrophysiology in Xenopus oocytes, CLC-1; type: cell-based; details: preliminary data, read-out: IC50 against CLC-1
[1] = test system: panel of CNS receptors, channels, and transporters; test: PDSP screen against panel of CNS receptors, transporters, and ion channels (overall); type: binding
Description: as §1

V1A = V1A (Homo sapiens (Human), UniProt P37288); test: PDSP primary binding assay; details: primary binding assay at 10 μM
Description: as §1

V1B = V1B (Homo sapiens (Human), UniProt P47901); test: PDSP primary binding assay; details: primary binding assay at 10 μM
Description: as §1

A2A = A2A (Homo sapiens (Human), UniProt P29274); test: PDSP primary binding assay; details: primary binding assay at 10 μM
Description: as §1

Chain of H4 (Q9H3N8 whole entry): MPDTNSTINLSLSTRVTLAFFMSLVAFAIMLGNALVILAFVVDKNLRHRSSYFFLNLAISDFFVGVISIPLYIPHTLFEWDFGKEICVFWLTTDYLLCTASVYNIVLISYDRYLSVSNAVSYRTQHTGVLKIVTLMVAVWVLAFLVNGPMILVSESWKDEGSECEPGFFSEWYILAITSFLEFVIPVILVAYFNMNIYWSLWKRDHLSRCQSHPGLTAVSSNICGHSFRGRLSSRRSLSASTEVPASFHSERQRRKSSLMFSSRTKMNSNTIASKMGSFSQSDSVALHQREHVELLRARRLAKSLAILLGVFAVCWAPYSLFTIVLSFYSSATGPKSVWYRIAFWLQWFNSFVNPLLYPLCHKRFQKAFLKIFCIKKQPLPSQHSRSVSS
Chain of 5-HT7 (P34969 whole entry, species assumed): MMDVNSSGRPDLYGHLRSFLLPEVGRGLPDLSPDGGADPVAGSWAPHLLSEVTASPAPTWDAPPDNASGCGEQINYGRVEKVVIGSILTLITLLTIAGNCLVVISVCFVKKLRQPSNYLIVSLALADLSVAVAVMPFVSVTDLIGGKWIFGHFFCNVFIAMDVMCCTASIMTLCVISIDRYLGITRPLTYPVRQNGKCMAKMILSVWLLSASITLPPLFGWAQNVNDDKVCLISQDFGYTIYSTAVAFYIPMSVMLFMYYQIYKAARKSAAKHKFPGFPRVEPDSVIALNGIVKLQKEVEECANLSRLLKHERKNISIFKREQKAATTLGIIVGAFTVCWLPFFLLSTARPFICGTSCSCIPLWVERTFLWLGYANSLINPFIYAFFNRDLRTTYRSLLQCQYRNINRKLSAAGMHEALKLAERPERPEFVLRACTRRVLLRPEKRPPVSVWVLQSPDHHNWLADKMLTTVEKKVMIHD
Chain of mGluR1 (Q13255 19-1194): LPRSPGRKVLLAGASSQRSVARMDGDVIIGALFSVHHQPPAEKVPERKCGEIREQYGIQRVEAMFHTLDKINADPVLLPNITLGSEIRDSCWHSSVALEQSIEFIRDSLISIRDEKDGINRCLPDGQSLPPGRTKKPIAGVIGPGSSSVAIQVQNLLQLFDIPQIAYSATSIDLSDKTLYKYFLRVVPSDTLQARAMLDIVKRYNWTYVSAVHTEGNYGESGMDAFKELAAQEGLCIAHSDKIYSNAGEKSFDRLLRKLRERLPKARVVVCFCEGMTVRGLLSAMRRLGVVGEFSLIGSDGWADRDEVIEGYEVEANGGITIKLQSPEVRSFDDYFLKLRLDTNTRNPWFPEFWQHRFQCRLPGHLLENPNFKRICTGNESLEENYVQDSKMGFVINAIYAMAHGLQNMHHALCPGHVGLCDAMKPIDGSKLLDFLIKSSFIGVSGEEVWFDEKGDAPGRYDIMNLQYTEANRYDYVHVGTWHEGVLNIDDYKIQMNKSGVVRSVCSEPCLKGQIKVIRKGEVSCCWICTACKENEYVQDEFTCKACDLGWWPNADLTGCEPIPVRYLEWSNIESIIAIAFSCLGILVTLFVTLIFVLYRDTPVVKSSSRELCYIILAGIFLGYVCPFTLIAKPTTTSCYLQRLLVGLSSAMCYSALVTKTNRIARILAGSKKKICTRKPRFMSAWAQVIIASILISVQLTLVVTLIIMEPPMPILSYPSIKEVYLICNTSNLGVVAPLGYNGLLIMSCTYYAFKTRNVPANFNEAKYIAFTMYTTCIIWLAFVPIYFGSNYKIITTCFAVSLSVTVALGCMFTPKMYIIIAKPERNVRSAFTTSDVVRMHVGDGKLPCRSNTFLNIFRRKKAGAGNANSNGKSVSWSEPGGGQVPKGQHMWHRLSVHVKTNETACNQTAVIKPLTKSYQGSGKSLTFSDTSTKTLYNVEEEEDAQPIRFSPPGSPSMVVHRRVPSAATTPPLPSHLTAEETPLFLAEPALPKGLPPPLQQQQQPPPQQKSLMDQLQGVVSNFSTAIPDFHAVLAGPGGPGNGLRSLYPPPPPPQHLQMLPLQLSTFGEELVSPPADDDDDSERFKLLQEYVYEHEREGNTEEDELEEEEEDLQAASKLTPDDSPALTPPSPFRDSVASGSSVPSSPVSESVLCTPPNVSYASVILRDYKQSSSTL
Chain of Beta2 (P07550 whole entry): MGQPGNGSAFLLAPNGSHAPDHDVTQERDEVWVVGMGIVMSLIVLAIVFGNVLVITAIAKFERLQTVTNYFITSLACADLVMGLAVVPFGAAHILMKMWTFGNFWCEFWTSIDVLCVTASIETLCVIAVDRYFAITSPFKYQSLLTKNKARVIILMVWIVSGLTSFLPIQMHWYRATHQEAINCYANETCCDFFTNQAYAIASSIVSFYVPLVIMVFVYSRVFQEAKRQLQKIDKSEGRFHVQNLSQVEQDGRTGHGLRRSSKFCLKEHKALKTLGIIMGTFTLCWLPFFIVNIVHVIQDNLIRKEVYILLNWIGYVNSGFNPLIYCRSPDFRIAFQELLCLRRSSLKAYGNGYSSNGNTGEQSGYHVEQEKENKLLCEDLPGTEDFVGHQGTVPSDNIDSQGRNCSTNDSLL
Chain of KOR (P41145 whole entry): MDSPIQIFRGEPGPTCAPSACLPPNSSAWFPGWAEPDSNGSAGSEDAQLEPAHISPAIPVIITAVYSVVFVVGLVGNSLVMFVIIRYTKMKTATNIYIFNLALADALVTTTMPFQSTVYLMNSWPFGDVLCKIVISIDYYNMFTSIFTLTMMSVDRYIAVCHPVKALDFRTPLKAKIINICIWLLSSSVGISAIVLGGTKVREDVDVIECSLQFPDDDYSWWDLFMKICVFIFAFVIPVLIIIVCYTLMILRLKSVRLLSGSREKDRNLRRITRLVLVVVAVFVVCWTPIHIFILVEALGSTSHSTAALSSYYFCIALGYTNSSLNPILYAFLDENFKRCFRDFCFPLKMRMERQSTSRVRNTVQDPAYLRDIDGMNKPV
Chain of Oxytocin (P30559 whole entry): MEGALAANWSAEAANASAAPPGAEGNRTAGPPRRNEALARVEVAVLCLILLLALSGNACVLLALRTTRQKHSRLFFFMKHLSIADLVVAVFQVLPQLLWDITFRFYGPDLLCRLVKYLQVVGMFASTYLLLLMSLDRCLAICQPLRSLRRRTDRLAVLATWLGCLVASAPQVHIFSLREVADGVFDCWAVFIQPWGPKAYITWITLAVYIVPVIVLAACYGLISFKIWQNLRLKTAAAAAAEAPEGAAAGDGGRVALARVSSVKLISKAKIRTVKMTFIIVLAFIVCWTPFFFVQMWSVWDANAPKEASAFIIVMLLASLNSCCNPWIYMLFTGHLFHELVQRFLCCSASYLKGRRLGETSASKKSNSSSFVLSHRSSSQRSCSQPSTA
Chain of Beta3 (P13945 whole entry): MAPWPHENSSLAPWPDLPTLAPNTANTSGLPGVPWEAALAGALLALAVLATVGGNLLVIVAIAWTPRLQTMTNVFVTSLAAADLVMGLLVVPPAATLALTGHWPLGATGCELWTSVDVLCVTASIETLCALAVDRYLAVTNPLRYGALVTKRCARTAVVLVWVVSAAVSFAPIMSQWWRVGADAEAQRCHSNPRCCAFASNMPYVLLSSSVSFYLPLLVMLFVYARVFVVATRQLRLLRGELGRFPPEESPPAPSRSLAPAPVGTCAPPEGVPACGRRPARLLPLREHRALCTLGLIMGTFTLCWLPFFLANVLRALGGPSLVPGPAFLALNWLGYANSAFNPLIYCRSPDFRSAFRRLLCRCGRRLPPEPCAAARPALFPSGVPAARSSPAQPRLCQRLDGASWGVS
Chain of Sigma 1 (Q99720 whole entry): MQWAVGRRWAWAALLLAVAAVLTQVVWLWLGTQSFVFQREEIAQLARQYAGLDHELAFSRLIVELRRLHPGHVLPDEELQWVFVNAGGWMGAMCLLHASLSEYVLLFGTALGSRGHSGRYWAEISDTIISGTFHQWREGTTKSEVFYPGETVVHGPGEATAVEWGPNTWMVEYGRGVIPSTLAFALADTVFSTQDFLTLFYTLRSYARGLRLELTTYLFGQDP
Chain of Alpha1B (P35368 whole entry): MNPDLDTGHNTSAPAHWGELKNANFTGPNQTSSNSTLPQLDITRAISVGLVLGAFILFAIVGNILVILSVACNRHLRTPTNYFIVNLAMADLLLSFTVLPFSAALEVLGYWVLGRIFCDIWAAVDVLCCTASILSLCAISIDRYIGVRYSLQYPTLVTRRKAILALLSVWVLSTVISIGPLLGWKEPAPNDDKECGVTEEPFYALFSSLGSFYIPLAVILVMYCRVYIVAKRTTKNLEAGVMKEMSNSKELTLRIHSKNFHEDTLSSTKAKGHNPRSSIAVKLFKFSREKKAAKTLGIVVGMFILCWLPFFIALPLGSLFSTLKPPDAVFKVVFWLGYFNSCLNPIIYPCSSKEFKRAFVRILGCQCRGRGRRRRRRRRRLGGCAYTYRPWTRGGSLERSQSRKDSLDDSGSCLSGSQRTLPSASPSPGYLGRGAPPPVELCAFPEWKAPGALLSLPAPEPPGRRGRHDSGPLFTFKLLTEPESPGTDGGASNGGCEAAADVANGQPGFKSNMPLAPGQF
Chain of 5-HT1E (P28566 whole entry, species assumed): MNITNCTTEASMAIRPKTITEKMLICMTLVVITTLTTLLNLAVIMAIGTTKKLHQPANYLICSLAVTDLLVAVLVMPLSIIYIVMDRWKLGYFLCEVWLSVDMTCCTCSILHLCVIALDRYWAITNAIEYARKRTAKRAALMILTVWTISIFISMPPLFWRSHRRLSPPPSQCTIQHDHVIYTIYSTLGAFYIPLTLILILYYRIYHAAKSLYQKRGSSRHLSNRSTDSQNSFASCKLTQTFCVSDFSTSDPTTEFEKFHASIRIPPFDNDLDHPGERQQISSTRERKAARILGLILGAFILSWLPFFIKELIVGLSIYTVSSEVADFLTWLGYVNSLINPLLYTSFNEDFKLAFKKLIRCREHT

| SMILES | % (10 μM) (D4) | % (10 μM) (Alpha1B) | % (10 μM) (H3) | % (10 μM) (Sigma 1) | % (10 μM) (5-HT1B) | % (10 μM) (5-HT3) | % (10 μM) (Alpha2B) | % (10 μM) (NMDA) | % (10 μM) (Alpha1D) | % (10 μM) (5-HT2A) | % (10 μM) (H4) | % (10 μM) (KOR) | % (10 μM) (Alpha1A) | % (10 μM) (5-HT1E) | % (10 μM) (Beta3) | % (10 μM) (Beta2) | % (10 μM) (Oxytocin) | % (10 μM) (BZP rat brain site) | % (10 μM) (AMPA) | % (10 μM) (5-HT7) | other results |
| --- | --- | --- | --- | --- | --- | --- | --- | --- | --- | --- | --- | --- | --- | --- | --- | --- | --- | --- | --- | --- | --- |
| O=C(O)c1ccccc1Nc1c(Cl)ccc(OCc2ccccc2)c1Cl [AK3-99B] | −0.19% | 4.33% | −5.97% | 3.95% | −0.25% | −7.63% | 15.62% | 39.29% | 7.20% | 19.70% | 8.29% | 29.90% | 24.26% | 11.82% | 32.58% | −8.08% | 8.80% | 40.75% | 21.14% | −29.75% | Ki (mGluR2): > 10 µM; Ki (mGluR4): > 10 µM; Ki (mGluR8): > 10 µM; Ki (mGluR6): > 10 µM; Ki (mGluR1): > 10 µM; selectivity among CLC-1, CLC-2, CLC-Ka, CLC-Kb (CLC-2): selective for CLC-2; IC50 (CLC-1): > 250 µM |
| O=C(O)c1cccnc1Nc1c(Cl)ccc(OCc2ccccc2)c1Cl [AK3-238] | −0.65% | 4.90% | −0.92% | 38.52% | 49.89% | 28.75% | −28.62% | 24.18% | −10.12% | 18.91% | 2.23% | 4.11% | 12.29% | 10.43% | 24.76% | 4.77% | −1.41% | 29.32% | 28.20% | 17.51% | off-target effects among panel of CNS receptors, channels, and transporters [1]: no off-target effects; % (10 μM) (V1A): 23.96%; % (10 μM) (V1B): 40.53%; % (10 μM) (A2A): −8.70%; Ki (mGluR1): > 10 µM |
